From patent publication US20230129438A1, “IMMUNOMODULATING IMINE-OXAZOLINE AZALIDES” (Zoetis Services LLC, priority 2020, published 2023)
Converted amounts (≈) assume the structure as drawn.

What was measured:
[1] = tested on: E. coli; assay: In-vitro MIC model, E. coli
[2] = tested on: TNF-α; assay: Bovine whole blood assay, LPS-induced TNF-α; assay type: cell-based; details: LPS 1 μg/mL
Procedure: (§1) (protected from light) for 30 minutes.

[3] = tested on: M. haemolytica; assay: In-vitro MIC model, M. haemolytica; assay type: cell-based
[4] = tested on: P. multocida 46572; assay: In vivo mouse lung infection challenge model (murine efficacy model); details: for % Survival: 20 mg/kg subcutaneous, CD-1 mice, intranasal challenge, to Day 10, approximate (~%), harmonized relative to vehicle and M9
[5] = tested on: IL-1β; assay: Bovine whole blood assay, IL-1β; assay type: cell-based; details: drug concentration giving overstimulation of IL-1β over LPS (cellular toxicity signal)
Procedure: as §1

[6] = tested on: S. aureus; assay: In-vitro MIC model, S. aureus; details: S. aureus ATCC 29213
[7] = tested on: P. multocida; assay: In-vitro MIC model, P. multocida; assay type: cell-based
[8] = tested on: IL-6; assay: Bovine whole blood assay, LPS-induced IL-6; assay type: cell-based; details: LPS 1 μg/mL
[9] = tested on: P. multocida; assay: Murine P. multocida intranasal challenge study with lung tissue RNA sequence analysis; assay type: in vivo, mouse; details: placebo 0%
Procedure: In one murine P. multocida intranasal challenge study, mice were administered tulathromycin (16 mg/kg; T02), M9 (32 mg/kg; T03), or ceftiofur (9 mg/kg; T04) by subcutaneous injection 18 hours after bacterial challenge (5×10^3 CFU/mouse) for lung tissue RNA sequence analysis. Survival at Day 7 was about 80%, 50%, and 90% for T02, T03, and T04, respectively, compared to placebo at 0%. Differential gene expression from total lung tissue RNA sequence analysis indicated at least 226 unique genes were up or down regulated (with significance) for T03. Output from ingenuity pathway analysis of these unique genes predicted major upstream regulators of the involved pathways. Data was analyzed based on the number of genes being modulated in the same direction that were associated with a given upstream regulator. An activation z-score of 2 or greater is considered significant and the direction change is indicated by + (activated) or − (inhibited). The top 5 pathways included: IL-9 signaling, glucocorticoid receptor signaling, prolactin signaling, JAK STAT signaling, and IL-17 signaling. The top 6 upstream regulators (activation z-score) included: lipopolysaccharide (−6.725), TNF (−4.669), IFNγ (−5.759), IL-1β (−5.947), STAT1 (−2.787), and poly rI:rC-RNA (−5.289). Even though this study was run in the murine model, the top upstream regulators identified as being modulated by M9 include an almost ubiquitous overlap with the pathways identified in the natural disease study as being key mediators in BRD, and therefore is modulating highly relevant pathways in BRD pathobiology.

[10] = tested on: bovine respiratory disease (BRD); assay: Natural bovine respiratory disease study; assay type: in vivo, beef calves; details: T04, dose not given, 14-day observation; saline 43%
[11] = tested on: H. somni; assay: In-vitro MIC model, H. somni; assay type: cell-based; details: lung isolates at necropsy, natural BRD study, H. somni (25)
[12] = tested on: M. haemolytica (strain: OSU-012103-BHI); assay: Bovine M. haemolytica intratracheal lung challenge model; assay type: in vivo
[13] = lung isolates at necropsy, natural BRD study, M. haemolytica (116)
[14] = lung isolates at necropsy, natural BRD study, P. multocida (33)

With `CC[C@H]1OC(=O)[C@H](C)[C@@H](O[C@H]2C[C@@](C)(OC)[C@](O)(CNCCOC)[C@H](C)O2)[C@H](C)[C@@H](O[C@@H]2O[C@H](C)C[C@H]3[C@H]2OC(=Nc2ccc(OC)cc2)N3C)[C@](C)(O)C[C@@H](C)CN[C@H](C)[C@@H](O)[C@]1(C)O` (mixture of isomers) [Example A-13, (E/Z)-(2R,3S,4R,5R,8R,10R,11R,12S,13S,14R)-2-ethyl-3,4,10-trihydroxy-13-(((2R,4R,5S,6S)-5-hydroxy-4-methoxy-5-(((2-methoxyethyl)amino)methyl)-4,6-dimethyltetrahydro-2H-pyran-2-yl)oxy)-11-(((3aR,4S,6R,7aS)-2-((4-methoxyphenyl)imino)-1,6-dimethylhexahydro-2H-pyrano[4,3-d]oxazol-4-yl)oxy)-3,5,8,10,12,14-hexamethyl-1-oxa-6-azacyclopentadecan-15-one] the MIC ([1]; E. coli ATCC 25922) was greater than 64 µg/mL, the MIC ([1]; E. coli W3110) was greater than 64 µg/mL and the IC50 [2] was 5 µM. For the same molecule, the MIC ([3]; M. haemolytica 12726) was greater than 64 µg/mL, the MIC ([3]; M. haemolytica 46571, bovine efficacy challenge strain) was greater than 64 µg/mL and the MIC ([3]; M. haemolytica ATCC 33396) was greater than 64 µg/mL. The “% Survival” value [4] was 37%, the “clinical efficacy, in words” value ([4]; P. multocida infection in mice) was “clinically efficacious” and the “IL-Iβ OS of LPS” value [5] was 32 µM. It also gave an MIC [6] greater than 64 µg/mL, an MIC ([7]; P. multocida 46572, murine efficacy challenge strain) greater than 64 µg/mL and an MIC ([7]; P. multocida ATCC 43137) greater than 64 µg/mL.
In the case of `CC[C@H]1OC(=O)[C@H](C)[C@@H](O[C@H]2C[C@@](C)(OC)[C@](O)(CNCC3CC3)[C@H](C)O2)[C@H](C)[C@@H](O[C@@H]2O[C@H](C)C[C@H]3[C@H]2OC(=Nc2ccc(OC)nc2)N3C)[C@](C)(O)C[C@@H](C)CN[C@H](C)[C@@H](O)[C@]1(C)O` (mixture of isomers) [Example A-25, (E/Z)-(2R,3S,4R,5R,8R,10R,11R,12S,13S,14R)-13-(((2R,4R,5S,6S)-5-(((cyclopropylmethyl)amino)methyl)-5-hydroxy-4-methoxy-4,6-dimethyltetrahydro-2H-pyran-2-yl)oxy)-2-ethyl-3,4,10-trihydroxy-11-(((3aR,4S,6R,7aS)-2-((6-methoxypyridin-3-yl)imino)-1,6-dimethylhexahydro-2H-pyrano[4,3-d]oxazol-4-yl)oxy)-3,5,8,10,12,14-hexamethyl-1-oxa-6-azacyclopentadecan-15-one], the IC50 [8] is reported as 4 µM, the IC50 [2] is reported as 2.5 µM and the “% Survival” value [4] is reported as 26%. For the same molecule, the “IL-Iβ OS of LPS” value [5] was 16 µM.
For `CC[C@H]1OC(=O)[C@H](C)[C@@H](O[C@H]2C[C@@](C)(OC)[C@](O)(CNCC(C)C)[C@H](C)O2)[C@H](C)[C@@H](O[C@@H]2O[C@H](C)C[C@H]3[C@H]2OC(=Nc2ccc(OC)nc2)N3C)[C@](C)(O)C[C@@H](C)CN[C@H](C)[C@@H](O)[C@]1(C)O` (mixture of isomers) [Example A-28, (E/Z)-(2R,3S,4R,5R,8R,10R,11R,12S,13S,14R)-2-ethyl-3,4,10-trihydroxy-13-(((2R,4R,5S,6S)-5-hydroxy-5-((isobutylamino)methyl)-4-methoxy-4,6-dimethyltetrahydro-2H-pyran-2-yl)oxy)-11-(((3aR,4S,6R,7aS)-2-((6-methoxypyridin-3-yl)imino)-1,6-dimethylhexahydro-2H-pyrano[4,3-d]oxazol-4-yl)oxy)-3,5,8,10,12,14-hexamethyl-1-oxa-6-azacyclopentadecan-15-one], the IC50 [8] was 20 µM, the IC50 [2] was 8 µM and the “% Survival” value [4] was 53%. For the same molecule, the “IL-Iβ OS of LPS” value [5] was 16 µM.
For `CCCNC[C@]1(O)[C@H](C)O[C@@H](O[C@H]2[C@H](C)[C@@H](O[C@@H]3O[C@H](C)C[C@H]4[C@H]3OC(=Nc3ccccc3)N4C)[C@](C)(O)C[C@@H](C)CN(C)[C@H](C)[C@@H](O)[C@](C)(O)[C@@H](CC)OC(=O)[C@@H]2C)C[C@@]1(C)OC` (mixture of isomers) [Example A-31, (E/Z)-(2R,3S,4R,5R,8R,10R,11R,12S,13S,14R)-11-(((3aR,4S,6R,7aS)-1,6-dimethyl-2-(phenylimino)hexahydro-2H-pyrano[4,3-d]oxazol-4-yl)oxy)-2-ethyl-3,4,10-trihydroxy-13-(((2R,4R,5S,6S)-5-hydroxy-4-methoxy-4,6-dimethyl-5-((propylamino)methyl)tetrahydro-2H-pyran-2-yl)oxy)-3,5,6,8,10,12,14-heptamethyl-1-oxa-6-azacyclopentadecan-15-one], the IC50 [8] was 10 µM, the IC50 [2] was 7 µM and the “IL-Iβ OS of LPS” value [5] was greater than 250 µM.
With `CCCNC[C@]1(O)[C@H](C)O[C@@H](O[C@H]2[C@H](C)[C@@H](O[C@@H]3O[C@H](C)C[C@H]4[C@H]3OC(=Nc3ccccc3)N4CC(C)C)[C@](C)(O)C[C@@H](C)CN[C@H](C)[C@@H](O)[C@](C)(O)[C@@H](CC)OC(=O)[C@@H]2C)C[C@@]1(C)OC` (mixture of isomers) [Example A-32, (E/Z)-(2R,3S,4R,5R,8R,10R,11R,12S,13S,14R)-2-ethyl-3,4,10-trihydroxy-13-(((2R,4R,5S,6S)-5-hydroxy-4-methoxy-4,6-dimethyl-5-((propylamino)methyl)tetrahydro-2H-pyran-2-yl)oxy)-11-(((3aR,4S,6R,7aS)-1-isobutyl-6-methyl-2-(phenylimino)hexahydro-2H-pyrano[4,3-d]oxazol-4-yl)oxy)-3,5,8,10,12,14-hexamethyl-1-oxa-6-azacyclopentadecan-15-one] the IC50 [8] was 2 µM, the IC50 [2] was 5 µM and the “IL-Iβ OS of LPS” value [5] was 2 µM.
In the case of `CO/N=C(\C(=O)N[C@@H]1C(=O)N2C(C(=O)O)=C(CSC(=O)c3ccco3)CS[C@H]12)c1csc(N)n1` [ceftiofur], the “Survival at Day 7” value ([9]; 9 mg/kg subcutaneous 18 hours after challenge (T04)) is reported as roughly 90%.
In the case of `CCCN1C[C@H](C)[C@@H](O)[C@](C)(O)[C@@H](CC)OC(=O)[C@H](C)[C@@H](O[C@H]2C[C@@](C)(OC)[C@@H](O)[C@H](C)O2)[C@H](C)[C@@H](O[C@@H]2O[C@H](C)C[C@H](N(C)C)[C@H]2O)[C@](C)(O)C[C@H]1C` [gamithromycin, reference compound], the MIC50 [3, 13] is reported as 1 µg/mL (≈ 1.29 µM), the MIC90 [3, 13] is reported as greater than 64 µg/mL and the “MIC values, range over strains” value ([3]; the same M. haemolytica screening strains) is reported as 0.5 to 1 µg/mL. For the same molecule, the “Percent failure (treatment failure)” value [10] was 29.8%, the MIC50 [7, 14] was 1 µg/mL (≈ 1.29 µM) and the MIC90 [7, 14] was greater than 64 µg/mL. For the same molecule, the “MIC values, range over strains” value ([7]; the same P. multocida screening strains) was 1 to 2 µg/mL, the MIC50 [11] was 0.25 µg/mL (≈ 0.322 µM) and the MIC90 [11] was 2 µg/mL (≈ 2.57 µM).
`CCCNC[C@]1(O)[C@H](C)O[C@@H](O[C@H]2[C@H](C)[C@@H](O[C@@H]3O[C@H](C)C[C@H](N(C)C)[C@H]3O)[C@](C)(O)C[C@@H](C)CN[C@H](C)[C@@H](O)[C@](C)(O)[C@@H](CC)OC(=O)[C@@H]2C)C[C@@]1(C)OC` [tulathromycin, (2R,3S,4R,5R,8R,10R,11R,12S,13S,14R)-11-(((2S,3R,4S,6R)-4-(dimethylamino)-3-hydroxy-6-methyltetrahydro-2H-pyran-2-yl)oxy)-2-ethyl-3,4,10-trihydroxy-13-(((2R,4R,5S,6S)-5-hydroxy-4-methoxy-4,6-dimethyl-5-((propylamino)methyl)tetrahydro-2H-pyran-2-yl)oxy)-3,5,8,10,12,14-hexamethyl-1-oxa-6-azacyclopentadecan-15-one] was tested, and the “Survival at Day 7” value ([9]; 16 mg/kg subcutaneous 18 hours after challenge (T02)) was “about 80%”, the Mortality ([12]; T03: 2.5 mg/kg subcutaneous Day −1, M. haemolytica challenge Day 0, saline 4/6) was 0/6 and the “IL-6 levels, in words” value ([12]; bovine M. haemolytica challenge, blood biomarker) was “significantly reduced”.
